Reference: PubChem BioAssay (NCI)
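Five compound concentrations were applied to cells in 96-well plates for 48 hours; endpoints were derived by simple linear interpolation of the resulting dose-response curve. Here, GI50 denotes the concentration required for 50% inhibition of growth. The concentration for full growth arrest is given as TGI.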

Tests used:
Test in all cases: inhibition of tumour cell growth, NCI panel, 48 h
[1] = system: KM12 colon
[2] = system: A498 renal
[3] = system: PC-3 prostate
[4] = system: T-47D breast
[5] = system: MCF7 breast
[6] = system: MOLT-4 leukemia
[7] = system: NCI-H226 lung
[8] = system: SNB-19 CNS
[9] = system: SW-620 colon
[10] = system: HS 578T breast
[11] = system: UACC-62 melanoma
[12] = system: TK-10 renal
[13] = system: HL-60(TB) leukemia
[14] = system: IGROV1 ovarian
[15] = system: SN12C renal
[16] = system: ACHN renal
[17] = system: SK-MEL-2 melanoma
[18] = system: LOX IMVI melanoma
[19] = system: SNB-75 CNS
[20] = system: HOP-92 NSCLC
[21] = system: OVCAR-5 ovarian
[22] = system: OVCAR-3 ovarian
[23] = system: SR leukemia
[24] = system: NCI-H460 lung
[25] = system: U251 CNS
[26] = system: SK-MEL-5 melanoma
[27] = system: HOP-62 NSCLC
[28] = system: SF-539 CNS

c1cc(N2CCN(c3ccc(C4=NCCN4)cc3)CC2)ccc1C1=NCCN1
GI50 [1]: > 49 µM | TGI [1]: > 96.1 µM | GI50 [2]: 7.5 µM | TGI [2]: > 100 µM | GI50 [3]: > 73.6 µM | TGI [3]: > 100 µM | GI50 [4]: > 100 µM | TGI [4]: > 100 µM | GI50 [5]: 24.6 µM | TGI [5]: > 100 µM | GI50 [6]: > 100 µM | TGI [6]: > 100 µM | GI50 [7]: > 80.6 µM | TGI [7]: > 100 µM | GI50 [8]: > 100 µM | TGI [8]: > 100 µM | GI50 [9]: > 100 µM | TGI [9]: > 100 µM | GI50 [10]: 25.1 µM | TGI [10]: > 78.2 µM | GI50 [11]: 41.9 µM | TGI [11]: > 100 µM | GI50 [12]: 43 µM | TGI [12]: 98.9 µM | GI50 [13]: > 100 µM | TGI [13]: > 100 µM | GI50 [14]: 55.9 µM | TGI [14]: > 100 µM | GI50 [15]: 1.85 µM | TGI [15]: > 26.4 µM | GI50 [16]: > 100 µM | TGI [16]: > 100 µM | GI50 [17]: 52.4 µM | TGI [17]: > 100 µM | GI50 [18]: > 100 µM | TGI [18]: > 100 µM | GI50 [19]: > 100 µM | TGI [19]: > 100 µM | GI50 [20]: > 100 µM | TGI [20]: > 100 µM | GI50 [21]: > 100 µM | TGI [21]: > 100 µM | GI50 [22]: > 46.9 µM | TGI [22]: > 86 µM | GI50 [23]: 30.8 µM | TGI [23]: > 100 µM | GI50 [24]: 24.9 µM | TGI [24]: > 100 µM | GI50 [25]: 32.7 µM | TGI [25]: > 100 µM | GI50 [26]: 22.4 µM | TGI [26]: > 68.8 µM | GI50 [27]: 16 µM | TGI [27]: 58.7 µM | GI50 [28]: 55.4 µM | TGI [28]: > 100 µM
